Experimental data taken from patent US6686343B1, “Triazolopurine derivatives, pharmaceutical compositions containing the derivatives, and adenosine A3 receptor affinitive agents” (Otsuka Pharmaceutical Factory, Inc., priority 1999, dated 2004).

melting point	SMILES
≥ 280 °C	COCc1nc2nc[nH]c2c2nc(-c3cc(OC)c(OC)c(OC)c3)nn12 [Example 6, 5-methoxymethyl-8-(3,4,5-trimethoxyphenyl)-1H-1,2,4-triazolo[5,1-i]purine]
≥ 255 °C (dec.)	CSCCc1nc2nc[nH]c2c2nc(-c3ccc(C(F)(F)F)cc3)nn12 [Example 27, 5-(2-methylthioethyl)-8-(4-trifluoromethylphenyl)-1H-1,2,4-triazolo[5,1-i]purine]
≥ 203 °C (dec.)	C[S+]([O-])CCc1nc2nc[nH]c2c2nc(-c3ccc(C(F)(F)F)cc3)nn12 (stereo not shown) [Example 40, 5-(2-methylsulfinylethyl)-8-(4-trifluoromethylphenyl)-1H-1,2,4-triazolo[5,1-i]purine]
249 to 251 °C	CSCCc1nc2nc[nH]c2c2nc(-c3ccc(-c4ccccc4)cc3)nn12 [Example 4, 8-(4-biphenylyl)-5-(2-methylthioethyl)-1H-1,2,4-triazolo[5,1-i]purine]
≥ 280 °C	CC(C)(C)c1ccc(-c2nc3c4[nH]cnc4nc(CCCC(=O)O)n3n2)cc1 [Example 35, 8-(4-t-butylphenyl)-5-(3-carboxypropyl)-1H-1,2,4-triazolo[5,1-i]purine]
≥ 261 °C (dec.)	CS(=O)(=O)CCc1nc2nc[nH]c2c2nc(-c3ccc(C(F)(F)F)cc3)nn12 [Example 44, 5-(2-methylsulfonylethyl)-8-(4-trifluoromethylphenyl)-1H-1,2,4-triazolo[5,1-i]purine]
≥ 280 °C	CCOCc1nc2nc[nH]c2c2nc(-c3ccc(C(F)(F)F)cc3)nn12 [Example 25, 5-ethoxymethyl-8-(4-trifluoromethylphenyl)-1H-1,2,4-triazolo[5,1-i]purine]
